Measured values from paper PMC10229426, “An optimized bioluminescent substrate for non-invasive imaging in the brain” (Nature Chemical Biology, 2023).
“Also recorded” adds a separate entry of the source.

How the values were obtained:
Antares = Antares (Oplophorus gracilirostris, UniProt Q9GV45, A31E/A60N/A81I/F95D/I117V/K70R/L54V/L99Q/M102K/N193R/P142E/Q151K/Q38R/Q45L/V71I/Y165I); assay: Comparison of bioluminescence in luciferase-transduced (AAV) mouse brain hippocampus; type: in vivo, J:NU mice; set-up: P2A-mNeonGreen (self-cleaving; mNeonGreen is separated and a P2A remnant stays on Antares) (C); expressed in transfected cells; host or cells: hippocampus of J:NU mice transduced with AAV.DJ
Description: For AAV packaging, pAAV-CMV-AkaLuc-P2A-mNeonGreen-WPRE plasmid and pAAV-CMV-Antares-P2A-mNeonGreen-WPRE were amplified and purified by a PureLink Expi endotoxin-free maxi plasmid purification kit (Invitrogen) and were sent to Stanford Gene Vector and Virus Core to produce and titer AAV.DJ vectors. Under sterile conditions, 12-week-old male J:NU mice (Jackson Laboratory, 007850) were anesthetized with isoflurane and secured in a stereotaxic frame (RWD Life Science), and a hole the size of the needle was drilled through the skull. A Hamilton syringe with a 33-gauge needle was inserted at anteroposterior −2.2 mm, mediolateral +1.7 mm and dorsoventral −1.7 mm. […] The needle was left in place for 3 min after each injection to minimize upward flow of viral solution. Two to 3 weeks after AAV infection, mice were injected i.p. with the indicated amount of CFz, Akalumine or FFz and imaged on the Ami HT (binning of 1 × 1 and exposure time of 10 s).

[1] = Toxicity in mice: necropsy and histopathology; type: in vivo, C57BL/6 mice; set-up: key: 0: absent; 1: minimal accumulation; 2: mild accumulation; 3: moderate accumulation; 4: severe accumulation; details: individual mice
Method: (§1) Male C57BL/6 mice of 2 months of age were killed by CO2 asphyxiation and cardiac exsanguination. All mice were weighed, and a complete gross examination of the external and internal organs was performed. […] Formalin-fixed tissues were processed routinely, embedded in paraffin, sectioned at 5 μm and stained with hematoxylin and eosin. All slides were blindly evaluated for histologic treatment-related effects (Supplementary Table 1) by a board-certified veterinary pathologist.

Antares luciferase = biological target: T1, Antares luciferase (Oplophorus gracilirostris, UniProt Q9GV45, A31E/A60N/A81I/F95D/I117V/K70R/L54V/L99Q/M102K/N193R/P142E/Q151K/Q38R/Q45L/V71I/Y165I); assay: Non-invasive detection of Antares in the liver (Alb-cre driver); type: in vivo, mouse; details: 1.3 µmol i.p.
T1 construct: expressed in transfected cells; host or cells: transgenic mice with CAG-LSL-Antares at the H11 locus, crossed to Cre driver lines (neurons or liver)
Description: Transgenic reporter mice with LSL-CAG-luciferase (Antares, FLuc or AkaLuc) inserted at the H11 locus (H11P) were generated by φC31-mediated recombination in blastocysts[48] by the Stanford Transgenic, Knockout and Tumor Model Center. For substrate comparisons, 2- to 4-month-old transgenic mice doubly hemizygous for a Camk2a-cre (Jackson Laboratory, 005359), Vgat-IRES-cre (Jackson Laboratory), Vglut2-IRES-cre (Jackson Laboratory, 016963) or Alb-cre (Jackson Laboratory, 003574) driver and a CAG-LSL-Antares, CAG-LSL-AkaLuc or CAG-LSL-FLuc reporter were anesthetized by inhalation of isoflurane for 5 min. An electric shaver was used to remove scalp hair in Camk2a-cre, Vglut2-IRES-cre or Vgat-IRES-cre mice or abdominal hair in Alb-cre mice. Nair depilatory cream (Church and Dwight) was then applied to the shaved area for 1 min, and remaining hair was removed with a piece of sterile gauze. […]
For mice expressing Antares, indicated amounts of Fz were dissolved in 480 µl of a PEG-300-based formulation consisting of 10% glycerol, 10% ethanol, 10% hydroxypropylcyclodextrin and 35% PEG-300 in water, or indicated amounts of lyophilized Fz analogs with P-407 vehicle were reconstituted in 150–500 µl of DPBS buffer. […] Integrated luminescence was quantified using the Fiji version of the ImageJ program (NIH)[49], with further statistical analysis performed in GraphPad Prism (version 9.0.0).

[2] = Toxicity in mice: necropsy and histopathology; type: in vivo, C57BL/6 mice; set-up: key: 0: absent; 1: present; details: individual mice
Method: as §1

Chain of Antares (Q9GV45 other isoform, or with tags, fused parts or gaps with the stated changes): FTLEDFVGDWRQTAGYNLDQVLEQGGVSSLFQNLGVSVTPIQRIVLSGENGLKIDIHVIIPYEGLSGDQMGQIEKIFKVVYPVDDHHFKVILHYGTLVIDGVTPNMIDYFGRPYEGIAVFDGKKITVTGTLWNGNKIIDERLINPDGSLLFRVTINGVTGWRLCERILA
T1 sequence (Q9GV45 other isoform, or with tags, fused parts or gaps with the stated changes): as above

Compound: O=c1c(Cc2ccco2)nc2c(Cc3ccccc3)[nH]c(-c3cccc(F)c3F)cn1-2 [compound 6, cephalofurimazine]
- peak signal relative to 3.0 µmol of AkaLumine (Antares; 1.3 µmol CFz i.p., Antares and AkaLuc AAV co-infected hippocampus): comparable peak signal
- brightness relative to 3 µmol of AkaLumine (Antares; CFz dose 3 µmol i.p., Antares and AkaLuc AAV co-infected hippocampus, listed as CFz): threefold more signal; also recorded: about threefold higher
- brightness relative to FFz (Antares; i.p., Antares AAV in hippocampus): brighter than FFz by at least an order of magnitude
- KCHMV, Kupffer cell hyperplasia and microvesicular vacuolation score ([1]; 3 days, 4.2 µmol, 20 mg P-407): 2
- KCHMV, Kupffer cell hyperplasia and microvesicular vacuolation score ([1]; 5 days, 1.3 µmol, 12 mg P-407): 2
- liver signal, 6 versus FFz (Antares luciferase): threefold dimmer than FFz
- HT, heart telangiectasia score ([2]; 1 day, 4.2 µmol, 20 mg P-407): 1
- HPMC, heart perivascular myxomatous change score ([2]; 3 days, 4.2 µmol, 20 mg P-407): 1
- HT, heart telangiectasia score ([2]; 3 days, 4.2 µmol, 20 mg P-407): 1
- HPMC, heart perivascular myxomatous change score ([2]; 5 days, 1.3 µmol, 12 mg P-407): 1
- HT, heart telangiectasia score ([2]; 5 days, 1.3 µmol, 12 mg P-407): 1
